Measurements: patent publication US20230077362A1 (CORTEVA AGRISCIENCE LLC, priority 2019, published 2023)
Where two headings read alike, the source gives them in different places.

Columns and labels:
Assay type in all cases: in vivo
[1] = system: Cabbage Looper (Trichoplusia ni) ("CL"), second instar larvae; test: Bioassay on cabbage looper (CL), 128-well diet tray assay; settings: Trichoplusia ni
How it was run: (§1)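 Mortality (%) is scored well by well after five to seven days at 25° C. on a 14:10 light:dark regime. The value given is the mean of eight wells.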

[2] = system: Beet Armyworm (Spodoptera exigua) ("BAW"), second instar larvae; test: Bioassay on beet armyworm (BAW), 128-well diet tray assay; settings: Spodoptera exigua
How it was run: as §1

[3] = system: Yellow Fever Mosquito "YFM" (Aedes aegypti), about 1 day-old larvae; test: Bioassay on yellow fever mosquito (YFM), 96-well plate larval assay; settings: for YFM (Biological Results, rating): Yellow Fever Mosquito (Aedes aegypti) larvae, scored on mortality after 3 days, C = Not Tested; for YFM rating: Table ABC, species YFM, mortality scored after 3 days, C = not tested, D = no activity noticed
Description: Example C: Bioassays on Yellow Fever Mosquito “YFM” (Aedes aegypti)
Certain molecules disclosed in this document were tested against YFM using procedures described in the following paragraph. In the reporting of the results, the “YFM Rating Table” was used (See Table Section).
Master plates containing 400 μg of a molecule dissolved in 100 μL of dimethyl sulfoxide (DMSO) (equivalent to a 4000 ppm solution) are used. A master plate of assembled molecules contains 15 μL per well. To this plate, 135 μL of a 90:10 water:acetone mixture is added to each well. A robot (Biomek® NXP Laboratory Automation Workstation) is programmed to dispense 15 μL aspirations from the master plate into an empty 96-well shallow plate (“daughter” plate). There are 6 reps (“daughter” plates) created per master. The created daughter plates are then immediately infested with YFM larvae.
The day before plates are to be treated, mosquito eggs are placed in Millipore water containing liver powder to begin hatching (4 g. into 400 mL). After the daughter plates are created using the robot, they are infested with 220 μL of the liver powder/larval mosquito mixture (about 1 day-old larvae). After plates are infested with mosquito larvae, a non-evaporative lid is used to cover the plate to reduce drying. Plates are held at room temperature for 3 days prior to grading. After 3 days, each well is observed and scored based on mortality.

[4] = system: Green Peach Aphid ("GPA") (Myzus persicae), wingless adult and nymph stages; test: Bioassay on green peach aphid (GPA), foliar spray on infested cabbage seedlings; settings: Myzus persicae, foliar, 72 h
How it was run: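 Cabbage seedlings with 2-3 true leaves, infested one day earlier with 20-50 wingless adult and nymph GPA, sprayed to runoff on both leaf sides; solvent check held 20% acetone/methanol (1:1). Live aphids counted after three days at about 25° C; corrected % control = 100*(X−Y)/X versus solvent check.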

[5] = read-out: CL (Biological Results, rating)
[6] = read-out: BAW (Biological Results, rating)
[7] = read-out: GPA (Biological Results, rating)

SMILES | pest or weed control at 50 µg/cm2 [1, 5] [%] | pest or weed control at 50 µg/cm2 [2, 6] [%] | YFM (Biological Results, rating) [3] | pest or weed control at 200 µg/mL [4, 7] [%] | pest or weed control at 50 µg/cm2 ([1]; read-out: CL rating) [%] | pest or weed control at 50 µg/cm2 ([2]; read-out: BAW rating) [%] | YFM rating [3] | pest or weed control at 200 µg/mL ([4]; read-out: GPA rating) [%]
O=C(/N=C1\SCC(=O)N1c1ccccc1C(F)F)NCCc1ccc(-c2ncn(-c3ccc(OC(F)(F)F)cc3)n2)cc1 [Compound H11] | 50 to 100 | 50 to 100 | A (80-100) | 0 to 80 |  |  |  | 
CC(F)(F)c1ccccc1N1C(=O)CS/C1=N\C(=O)NCCc1ccc(-c2ncn(-c3ccc(OC(F)(F)F)cc3)n2)cc1 [Compound H21] | 50 to 100 | 50 to 100 | A (80-100) | 0 to 80 |  |  |  | 
Cc1cc(-c2cn(-c3ccc(C(F)(F)F)cn3)cn2)ccc1NC(=O)/N=C1\SCC(=O)N1c1cc(N(C)C)ccc1C(C)C [Compound J510, (Z)-1-(3-(5-(Dimethylamino)-2-isopropylphenyl)-4-oxothiazolidin-2-ylidene)-3-(2-methyl-4-(1-(5-(trifluoromethyl)pyridin-2-yl)-1H-imidazol-4-yl)phenyl)urea] |  |  |  |  | 50 to 100 | 50 to 100 | A (80-100) | 0 to 80
Cc1ccc(C(F)(F)F)c(N2C(=O)CS/C2=N\C(=O)N[C@H](C)Cc2ccc(-c3ncn(-c4ccc(OC(F)(F)F)cc4)n3)cc2)c1 [Compound H3] | 50 to 100 | 50 to 100 | A (80-100) | 80 to 100 |  |  |  | 
O=C(/N=C1\SCC(=O)N1c1cc(Cl)ccc1COCc1ccccc1)Nc1ccc(-c2ncn(-c3ccc(OC(F)(F)F)cc3)n2)cc1F [Compound J719, (Z)-1-(3-(2-((Benzyloxy)methyl)-5-chlorophenyl)-4-oxothiazolidin-2-ylidene)-3-(2-fluoro-4-(1-(4-(trifluoromethoxy)phenyl)-1H-1,2,4-triazol-3-yl)phenyl)urea] |  |  |  |  | 50 to 100 | 50 to 100 | A (80-100) | 0 to 80
O=C(/N=C1\SCC(=O)N1c1ccccc1COCc1ccccc1)Nc1ccc(-c2ncn(-c3ccc(OC(F)(F)F)cc3)n2)cc1F [Compound J742, (Z)-1-(3-(2-((Benzyloxy)methyl)phenyl)-4-oxothiazolidin-2-ylidene)-3-(2-fluoro-4-(1-(4-(trifluoromethoxy)phenyl)-1H-1,2,4-triazol-3-yl)phenyl)urea] |  |  |  |  | 50 to 100 | 50 to 100 | A (80-100) | 0 to 80
Cc1ccc(COCC(F)(F)F)c(N2C(=O)CS/C2=N\C(=O)Nc2ccc(-c3ncn(-c4ccn(CC(F)(F)F)c(=O)c4)n3)cc2F)c1 [Compound J751, (Z)-1-(2-Fluoro-4-(1-(2-oxo-1-(2,2,2-trifluoroethyl)-1,2-dihydropyridin-4-yl)-1H-1,2,4-triazol-3-yl)phenyl)-3-(3-(5-methyl-2-((2,2,2-trifluoroethoxy)methyl)phenyl)-4-oxothiazolidin-2-ylidene)urea] |  |  |  |  | 50 to 100 | 50 to 100 | A (80-100) | 0 to 80
Cc1ccc(COCc2ccccc2)c(N2C(=O)CS/C2=N\C(=O)Nc2ccc(-c3ncn(-c4ccc(C(F)(F)F)cc4)n3)cc2F)c1 [Compound J747, (Z)-1-(3-(2-((Benzyloxy)methyl)-5-methylphenyl)-4-oxothiazolidin-2-ylidene)-3-(2-fluoro-4-(1-(4-(trifluoromethyl)phenyl)-1H-1,2,4-triazol-3-yl)phenyl)urea] |  |  |  |  | 50 to 100 | 50 to 100 | A (80-100) | 0 to 80
